# In article PMC10063562, “Metabolic profiling, antioxidant, and enzyme inhibition potential of Iris pseudacorus L. from Egypt and Japan: A comparative study” (Scientific Reports, 2023):
# Where two headings read alike, the source gives them in different places.
# Key:
# [1] = cited from earlier work; for antioxidant activity IC50: compared to propyl gallate, ref [78]; for free radical scavenging activity IC50: compared to trolox, ref [79]
# α-glucosidase = conditions: cited from earlier work
# rats = conditions: pre-administration in rats (5 and 10 mg/kg); ref [91]; cited from earlier work
# pancreatic lipase [2] = conditions: cited from earlier work
# pancreatic lipase [3] = biological target: T1, pancreatic lipase (Sus scrofa, UniProt P00591); assay: pancreatic lipase enzyme inhibition assay (4MUFO substrate); type: biochemical, porcine; conditions: mean ± SD, n=3
# T1 construct: purchased Sigma Aldrich, Japan
# T1 sequence (P00591 1-450): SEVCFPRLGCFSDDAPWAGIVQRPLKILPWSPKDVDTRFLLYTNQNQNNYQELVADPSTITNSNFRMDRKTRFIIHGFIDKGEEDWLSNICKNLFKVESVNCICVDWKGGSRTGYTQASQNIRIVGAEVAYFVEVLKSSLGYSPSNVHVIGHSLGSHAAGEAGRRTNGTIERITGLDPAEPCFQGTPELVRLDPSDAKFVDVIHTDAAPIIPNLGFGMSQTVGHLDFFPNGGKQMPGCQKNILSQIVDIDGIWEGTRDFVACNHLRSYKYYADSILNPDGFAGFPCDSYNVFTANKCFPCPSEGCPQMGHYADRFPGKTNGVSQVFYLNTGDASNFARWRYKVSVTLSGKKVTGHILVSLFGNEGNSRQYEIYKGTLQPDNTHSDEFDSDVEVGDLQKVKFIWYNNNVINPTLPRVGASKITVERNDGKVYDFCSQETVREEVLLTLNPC
# Text: 2, 2-Diphenyl-1-picrylhydrazyl (DPPH), pancreatic lipase enzyme from porcine animal, tyrosinase enzyme from mushroom plant and α-glucosidase enzyme from Saccharomyces cerevisiae fungi were purchased from the Sigma Aldrich, Japan. Arbutin and aluminum chloride (III) were obtained from Nacalai Tesque, Japan. Cetilistat was purchased from Combi-Blocks, United States of America. Acarbose and Trolox were obtained from Wako Pure Chemical Industries, Japan. Methanol was purchased from Al-Nasr Pharmaceutical Company, Egypt.
# The anti-hyperlipidemic potential of yellow flag extracts was conducted by Bitou et al. method with minor alterations. In an ELISA microplate reader, pancreatic lipase solution (50 μL at pH 7.4) in phosphate buffer (100 μg/mL, 0.2 M) was added together with 50 μL of I. pseudacorus extract at a concentration ranging from 1.56 to 100 μg/mL. After 10 min of incubation at 25 °C. […] The quantity of 4-methylumbelliferone liberated by the lipase enzyme was measured fluorometrically using a spectrophotometer at 355 nm excitation wavelength and 460 nm emission wavelength. […] The percentage of lipase inhibition was calculated using the following equation: [1- As/Ac ]*100], where As and Ac symbolize I. pseudacorus extract and […] absorbances. […]
# DPPH and enzyme inhibitory assays were carried out in triplicates, and the values were expressed as mean ± standard deviation. […]
# [4] = tested on: Chinese hamster lung fibroblast (V79-4) cells; set-up: method as in PMID 16102749; conditions: V79-4 cells exposed to hydrogen peroxide; ref [77]; cited from earlier work
# [5] = DPPH radical scavenging assay; conditions: mean ± SD, n=3
# Procedure: The antioxidant activity of the yellow flag extracts was determined using DPPH scavenging assay in accordance with Shimamura et al. with minimal adjustments. The reaction mixture in 96 well culture plate contained. […] After 20 min of incubation of the reaction mixture at 25 °C. The degree of bleaching of the violet tint of DPPH depends on the ability of I. pseudacorus extracts for hydrogen/electron donation and was measured spectrophotometrically at 520 nm of wavelength. Noteworthy, trolox (an artificial anti-oxidant agent) was used as a positive control. The percentage of antioxidant capacity of the yellow flag extracts equals to [ Ac-As/Ac ] *100 Where Ac, As represents the control absorbance and the I. pseudacorus extract absorbance, respectively. The graph was plotted and the inhibitory concentration 50 (IC50) value was calculated. DPPH and enzyme inhibitory assays were carried out in triplicates, and the values were expressed as mean ± standard deviation. For the determination of the in vitro antioxidant, tyrosinase, lipase, and α-glucosidase inhibition potential, the (IC50) was estimated from the graph plots of the dose–response curves at each sample concentration by GraphPad Prism software (San Diego, CA, USA). The IC50 was defined as the concentration of the sample required to inhibit 50% of the tested enzyme activity.
# protein glycation = tested on: protein glycation; set-up: method as in PMID 23270944; conditions: at concentration of 3 µg/mL; ref [83]; cited from earlier work
# [6] = set-up: method as in PMID 26799817; conditions: compared to trolox; ref [80]; cited from earlier work
# [7] = compared with acarbose, ref [6]
molecule,measurement,setting,value
"CCCOC(=O)c1cc(O)c(O)c(O)c1 [propyl gallate, reference compound]",antioxidant activity IC50,[1],6.72 µg/mL
"O=c1cc(-c2ccc(O)cc2)oc2c([C@@H]3O[C@H](CO)[C@@H](O)[C@H](O)[C@H]3O)c(O)cc(O)c12 [Vitexin (42), Vitexin]",free radical scavenging activity IC50,[1],31.4 µg/mL
same,α-glucosidase IC50,α-glucosidase; [7],4.1 µg/mL
"O=c1c(O)c(-c2ccc(O)c(O)c2)oc2cc(O)cc(O)c12 [Quercetin (38), Quercetin]",rat fat absorption,rats,remarkable decrease in rat fat absorption
Schaftoside [Schaftoside (18)],pancreatic lipase % inhibition,"pancreatic lipase [2]; at a concentration of 250 μg/mL, ref [88]",95.5%
same,pancreatic lipase IC50,"pancreatic lipase [2]; compared with orlistat, ref [88]",130 µg/mL
CCCCCCCCCCCCCCCCOc1nc2ccc(C)cc2c(=O)o1 [Cetilistat],IC50,pancreatic lipase [3],18.6 µM
"COc1c(O)cc2occ(-c3ccc(O)cc3)c(=O)c2c1O [Tectorigenin (31), Tectorigenin]",intracellular free radical scavenging and lipid peroxidation,[4],scavenged intracellular free radicals and reduced lipid peroxidation
"Cc1c(C)c2c(c(C)c1O)CCC(C)(C(=O)O)O2 (stereo not drawn) [Trolox, reference compound]",DPPH IC50,[5],14.59 µg/mL
same,free radical scavenging activity IC50,[1],17.3 µg/mL
"C[C@@H]1O[C@@H](OC[C@H]2O[C@@H](Oc3c(-c4ccc(O)c(O)c4)oc4cc(O)cc(O)c4c3=O)[C@H](O)[C@@H](O)[C@@H]2O)[C@H](O)[C@H](O)[C@H]1O [rutin, reference compound]",protein glycation % inhibition,protein glycation,82.50%
"COc1ccc(-c2coc3cc(O)c(OC)c(O)c3c2=O)cc1 [Irisolidone (34), Irisolidone]",antioxidant activity IC50,[1],12.62 µg/mL
Kaempferol-O-deoxyhexosyl hexoside (Kaempferol-O-rutinoside) [Compound 21],pancreatic lipase IC50,"pancreatic lipase [2]; compared to orlistat, ref [90]",1.7 ± 0.30 µg/mL
"COc1ccccc1-c1coc2cc(O)c(OC)c(O)c2c1=O [5,7-Dihydroxy-2',6-dimethoxyisoflavone]",α-glucosidase IC50,"α-glucosidase; compared to acarbose, ref [83]",0.321 ± 0.008 µg/mL
same,protein glycation % inhibition,protein glycation,70.41%
"O=c1c(-c2ccc(O)cc2)coc2cc(O)cc(O)c12 [Genistein (30), Genistein]",DPPH IC50,[6],1.89 ± 0.16 µg/mL
same,α-glucosidase IC50,"α-glucosidase; compared with acarbose, ref [85]",40.09 ± 0.94 µg/mL
"O=c1cc(-c2ccc(O)cc2)oc2cc(O)c([C@@H]3O[C@H](CO)[C@@H](O)[C@H](O)[C@H]3O)c(O)c12 [Isovitexin (43), Isovitexin]",α-glucosidase IC50,α-glucosidase; [7],6.7 µg/mL
